Like-named read-outs stand apart in the source and are kept apart here.
What was measured:
rice blast = assay: microbe, parasite or virus in culture; type: cell-based; details: Pyricularia oryzae; for inhibition at 25 ppm: read-out: inhibition rate against rice blast, 25 ppm, in vitro
Diamond back moth = assay: insecticidal activity against diamond back moth, airbrush spray; type: in vivo; details: for pest or weed control at 600 µg/mL: 600 mg/L
Summary of the method: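 Airbrush leaf-disc spray test: both faces of 2 cm cabbage discs received 0.5 ml of test solution at 0.7 kg/cm^2. Solutions were made in acetone:methanol (1:1) and brought to concentration with 0.1% Tween 80 in water. Ten second-instar larvae per disc, triplicates, were held at 25° C and 60˜70% R.H., with mortality recorded at 72 hrs.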

armyworm = assay: bioactivity test against armyworm, airbrush spray; type: in vivo; details: for pest or weed control at 600 µg/mL: 600 mg/L, read-out: Insecticidal activity against armyworm (%)
[1] = system: Green peach aphids (Myzus Persicae Sulzer); assay: bioactivity test against green peach aphid, airbrush foliar spray; type: in vivo
Summary of the method: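 Aphids (15-30 per cabbage leaf disc) on moist filter paper were airbrush-sprayed at 10 psi, 0.5 mL, with compound from acetone:methanol (1:1) diluted in water with 0.1% tween 80. Held at 25±1 C, 60±5% RH; survivors counted after 48 hrs to give death rates.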

carmine spider mite = assay: bioactivity test against carmine spider mite, airbrush spray; type: in vivo; details: for pest or weed control at 600 µg/mL / pest or weed control at 10 µg/mL / pest or weed control at 100 µg/mL: read-out: Insecticidal activity against carmine spider mite (% )
Summary of the method: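 Broadbean seedlings infested with adult mites were sprayed with compound (acetone/methanol stock diluted in 0.1% Tween 80 water) by airbrush at 0.7 kg/cm^2, 0.5 ml. Three replicates were run. Mortality was scored after 72 hrs.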

corn rust = assay: protectant activity in vivo against corn rust; details: for pest or weed control at 400 µg/mL: read-out: control effect against corn rust (%), 400 mg/L
wheat powdery mildew = assay: protectant activity in vivo against wheat powdery mildew; details: for pest or weed control at 400 µg/mL: read-out: control effect against wheat powdery mildew (%), 400 mg/L
cucumber downy mildew = assay: protectant activity in vivo against cucumber downy mildew; details: Cucumis sativus, 168 h; for pest or weed control at 25 µg/mL: read-out: control effect against cucumber downy mildew (%), 25 mg/L; for pest or weed control at 50 µg/mL: read-out: control effect against cucumber downy mildew (%), 50 mg/L; for pest or weed control at 100 µg/mL: read-out: control effect against cucumber downy mildew (%), 100 mg/L
cucumber gray mold = assay: fungicidal activity in vitro (inhibition rate) against cucumber gray mold; type: cell-based; details: read-out: inhibition rate against cucumber gray mold
[2] = Myzus persicae, foliar, 48 h, 10 mg/L, contrastive test, read-out: Insecticidal activity against peach aphid (%)
[3] = Myzus persicae, foliar, 48 h, 100 mg/L, contrastive test, read-out: Insecticidal activity against peach aphid (%)
[4] = Myzus persicae, foliar, 48 h, 600 mg/L, contrastive test, read-out: Insecticidal activity against peach aphid (%)
[5] = Tetranychus cinnabarinus, 72 h, 600 mg/L, contrastive test
[6] = Zea mays, 168 h, protectant activity
[7] = Triticum aestivum, 168 h, protectant activity
[8] = read-out: control effect against cucumber downy mildew (%), 400 mg/L, protectant activity
[9] = 100 ppm, mortality after 72 hrs
[10] = 600 ppm, mortality after 72 hrs
[11] = Myzus persicae, foliar, 48 h, read-out: Insecticidal activity against peach aphid (%)

## Cc1ncnc(NCc2ccc(Oc3ncc(Cl)cc3Cl)cc2)c1Cl [CK37, reference compound]
Rice blast
  inhibition at 25 ppm: < 50%
Diamond back moth; 72 h
  pest or weed control at 600 µg/mL: 0%
armyworm; 72 h
  pest or weed control at 600 µg/mL: 0%
[1]; [2]
  pest or weed control at 10 µg/mL: 0%
[1]; [3]
  pest or weed control at 100 µg/mL: 16%
[1]; [4]
  pest or weed control at 600 µg/mL: 100%
Carmine spider mite; [5]
  pest or weed control at 600 µg/mL: 0%
Corn rust; [6]
  pest or weed control at 400 µg/mL: 0%
Wheat powdery mildew; [7]
  pest or weed control at 400 µg/mL: 0%
Cucumber downy mildew; protectant activity
  pest or weed control at 25 µg/mL: 0%
  pest or weed control at 50 µg/mL: 10%
  pest or weed control at 100 µg/mL: 20%
Cucumber downy mildew; [8]
  pest or weed control at 400 µg/mL: 100%

## CC(Cl)c1ncnc(NCc2ccc(Oc3ccc(C(F)(F)F)cn3)cc2)c1Cl (centres unmarked) [CK43, reference compound]
Rice blast
  inhibition at 25 ppm: < 50%
Diamond back moth; 72 h
  pest or weed control at 600 µg/mL: 0%
armyworm; 72 h
  pest or weed control at 600 µg/mL: 0%
[1]; [4]
  pest or weed control at 600 µg/mL: 0%
Carmine spider mite; Tetranychus cinnabarinus, 72 h, 10 mg/L, contrastive test
  pest or weed control at 10 µg/mL: 16%
Carmine spider mite; Tetranychus cinnabarinus, 72 h, 100 mg/L, contrastive test
  pest or weed control at 100 µg/mL: 29%
Carmine spider mite; [5]
  pest or weed control at 600 µg/mL: 74%
Corn rust; [6]
  pest or weed control at 400 µg/mL: 85%
Wheat powdery mildew; [7]
  pest or weed control at 400 µg/mL: 20%
Cucumber downy mildew; protectant activity
  pest or weed control at 25 µg/mL: 0%
  pest or weed control at 50 µg/mL: 20%
  pest or weed control at 100 µg/mL: 40%
Cucumber downy mildew; [8]
  pest or weed control at 400 µg/mL: 100%

## CCc1ncnc(NCc2ccc(Oc3ccc(C(F)(F)F)cc3)cc2)c1Cl [CK54, reference compound]
Cucumber gray mold; 25 ppm, in vitro
  inhibition at 25 ppm: 0%
armyworm; 72 h
  pest or weed control at 600 µg/mL: 67%
[1]; [2]
  pest or weed control at 10 µg/mL: 34%
[1]; [3]
  pest or weed control at 100 µg/mL: 100%
[1]; [4]
  pest or weed control at 600 µg/mL: 100%
Corn rust; Zea mays, 168 h, read-out: control effect against corn rust (%), 6.25 mg/L, protectant activity
  pest or weed control at 6.25 µg/mL: 0%
Corn rust; Zea mays, 168 h, read-out: control effect against corn rust (%), 25 mg/L, protectant activity
  pest or weed control at 25 µg/mL: 30%
Corn rust; Zea mays, 168 h, read-out: control effect against corn rust (%), 100 mg/L, protectant activity
  pest or weed control at 100 µg/mL: 60%
Corn rust; [6]
  pest or weed control at 400 µg/mL: 100%
Cucumber downy mildew; protectant activity
  pest or weed control at 25 µg/mL: 65%
  pest or weed control at 50 µg/mL: 80%
  pest or weed control at 100 µg/mL: 90%
Cucumber downy mildew; [8]
  pest or weed control at 400 µg/mL: 100%

## CC(Cl)c1ncnc(NCCc2ccc(Oc3ccc(Cl)nn3)cc2)c1Cl (centres unmarked) [CK62, reference compound]
Cucumber gray mold; 25 ppm, in vitro
  inhibition at 25 ppm: < 50%
Carmine spider mite; [5]
  pest or weed control at 600 µg/mL: 0%
Cucumber downy mildew; [8]
  pest or weed control at 400 µg/mL: 80%

## CCc1ncnc(NCCc2ccc(Oc3ccc(C(F)(F)F)cn3)cc2)c1Cl [Compound I-6758]
Rice blast; read-out: inhibition rate against rice blast, 8.3 ppm, in vitro
  inhibition at 8.3 ppm: 80 to 99%
Diamond back moth; [9]
  control (test results against diamond back moth): 100%
Diamond back moth; [10]
  control (test results against diamond back moth): 100%
armyworm; 100 ppm, mortality after 72 h
  control (test results against armyworm): 100%
armyworm; 600 ppm, mortality after 72 h
  control (test results against armyworm): 100%
[1]; 1.25 mg/L, contrastive test
  Insecticidal activity against peach aphid (%): 89%
[1]; 2.5 mg/L, contrastive test
  Insecticidal activity against peach aphid (%): 100%
[1]; 5 mg/L, contrastive test
  Insecticidal activity against peach aphid (%): 100%
[1]; 10 mg/L, contrastive test
  Insecticidal activity against peach aphid (%): 100%
[1]; 100 mg/L, contrastive test
  Insecticidal activity against peach aphid (%): 100%
[1]; 600 mg/L, contrastive test
  Insecticidal activity against peach aphid (%): 100%
[1]; 2.5 ppm, death rate after 48 hrs
  control (test results against green peach aphid): 100%
[1]; 5 ppm, death rate after 48 hrs
  control (test results against green peach aphid): 100%
[1]; 10 ppm, death rate after 48 hrs
  control (test results against green peach aphid): 100%
[1]; 100 ppm, death rate after 48 hrs
  control (test results against green peach aphid): 100%
[1]; 600 ppm, death rate after 48 hrs
  control (test results against green peach aphid): 100%
Carmine spider mite; 2.5 mg/L
  Insecticidal activity against carmine spider mite (% ): 79%
Carmine spider mite; 5 mg/L
  Insecticidal activity against carmine spider mite (% ): 82%
Carmine spider mite; 10 mg/L, contrastive test
  Insecticidal activity against carmine spider mite (% ): 99%
Carmine spider mite; 100 mg/L, contrastive test
  Insecticidal activity against carmine spider mite (% ): 100%
Carmine spider mite; 600 mg/L, contrastive test
  Insecticidal activity against carmine spider mite (% ): 100%
Carmine spider mite; [9]
  control against carmine spider mite: 100%
Carmine spider mite; [10]
  control against carmine spider mite: 100%
Corn rust; 100 ppm
  protectant activity against corn rust in vivo: 100%
Corn rust; 400 ppm
  protectant activity against corn rust in vivo: 100%
Wheat powdery mildew; 100 ppm
  protectant activity against wheat powdery mildew in vivo: 100%
Wheat powdery mildew; 400 ppm
  protectant activity against wheat powdery mildew in vivo: 100%

## COc1cc(CCNc2ncnc(C(F)F)c2Cl)ccc1Oc1ccc(Cl)cc1 [II-10583]
Rice blast
  inhibition at 25 ppm: 80 to 99%
Diamond back moth; 72 h, 600 ppm, mortality after 72 hrs, read-out: control (test results against diamond back moth)
  pest or weed control at 600 ppm: 100%
armyworm; 72 h, 600 ppm, mortality after 72 h
  pest or weed control at 600 ppm: 100%
[1]; [2]
  pest or weed control at 10 µg/mL: 100%
[1]; [3]
  pest or weed control at 100 µg/mL: 100%
[1]; [4]
  pest or weed control at 600 µg/mL: 100%
[1]; Myzus persicae, foliar, 48 h, 10 ppm, death rate after 48 hrs
  pest or weed control at 10 ppm: 100%
[1]; Myzus persicae, foliar, 48 h, 100 ppm, death rate after 48 hrs
  pest or weed control at 100 ppm: 100%
[1]; Myzus persicae, foliar, 48 h, 600 ppm, death rate after 48 hrs
  pest or weed control at 600 ppm: 100%
Carmine spider mite; Tetranychus cinnabarinus, 72 h, 600 ppm, mortality after 72 hrs
  pest or weed control at 600 ppm: 100%
Corn rust; Zea mays, 168 h, read-out: protectant activity against corn rust in vivo, 25 ppm
  pest or weed control at 25 ppm: 80 to 99%
Corn rust; Zea mays, 168 h, read-out: protectant activity against corn rust in vivo, 100 ppm
  pest or weed control at 100 ppm: 100%
Corn rust; Zea mays, 168 h, read-out: protectant activity against corn rust in vivo, 400 ppm
  pest or weed control at 400 ppm: 100%
Wheat powdery mildew; Triticum aestivum, 168 h, read-out: control effect against wheat powdery mildew (%), 6.25 mg/L, protectant activity
  pest or weed control at 6.25 µg/mL: 100%
Wheat powdery mildew; Triticum aestivum, 168 h, read-out: control effect against wheat powdery mildew (%), 25 mg/L, protectant activity
  pest or weed control at 25 µg/mL: 100%
Wheat powdery mildew; Triticum aestivum, 168 h, read-out: control effect against wheat powdery mildew (%), 100 mg/L, protectant activity
  pest or weed control at 100 µg/mL: 100%
Wheat powdery mildew; [7]
  pest or weed control at 400 µg/mL: 100%
Wheat powdery mildew; Triticum aestivum, 168 h, read-out: protectant activity against wheat powdery mildew in vivo, 6.25 ppm
  pest or weed control at 6.25 ppm: 100%
Wheat powdery mildew; Triticum aestivum, 168 h, read-out: protectant activity against wheat powdery mildew in vivo, 25 ppm
  pest or weed control at 25 ppm: 100%
Wheat powdery mildew; Triticum aestivum, 168 h, read-out: protectant activity against wheat powdery mildew in vivo, 100 ppm
  pest or weed control at 100 ppm: 100%
Wheat powdery mildew; Triticum aestivum, 168 h, read-out: protectant activity against wheat powdery mildew in vivo, 400 ppm
  pest or weed control at 400 ppm: 100%
Cucumber downy mildew; read-out: control effect against cucumber downy mildew (%), 6.25 mg/L, protectant activity
  pest or weed control at 6.25 µg/mL: 95%
Cucumber downy mildew; read-out: control effect against cucumber downy mildew (%), 12.5 mg/L, protectant activity
  pest or weed control at 12.5 µg/mL: 95%
Cucumber downy mildew; protectant activity
  pest or weed control at 25 µg/mL: 95%
  pest or weed control at 50 µg/mL: 100%
  pest or weed control at 100 µg/mL: 100%
Cucumber downy mildew; [8]
  pest or weed control at 400 µg/mL: 100%
Cucumber downy mildew; read-out: protectant activity against cucumber downy mildew in vivo, 6.25 ppm
  pest or weed control at 6.25 ppm: 80 to 99%
Cucumber downy mildew; read-out: protectant activity against cucumber downy mildew in vivo, 12.5 ppm
  pest or weed control at 12.5 ppm: 80 to 99%
Cucumber downy mildew; read-out: protectant activity against cucumber downy mildew in vivo, 25 ppm
  pest or weed control at 25 ppm: 80 to 99%
Cucumber downy mildew; read-out: protectant activity against cucumber downy mildew in vivo, 50 ppm
  pest or weed control at 50 ppm: 80 to 99%
Cucumber downy mildew; read-out: protectant activity against cucumber downy mildew in vivo, 100 ppm
  pest or weed control at 100 ppm: 100%
Cucumber downy mildew; read-out: protectant activity against cucumber downy mildew in vivo, 400 ppm
  pest or weed control at 400 ppm: 100%

## CC(F)c1ncnc(NCCc2ccc(OC(F)(F)F)cc2)c1Cl (centres unmarked) [flufenerim, reference compound]
Cucumber gray mold
  inhibition at 25 ppm: 0%
[1]; [11]
  pest or weed control at 1.25 µg/mL: 37%
  pest or weed control at 2.5 µg/mL: 90%
  pest or weed control at 5 µg/mL: 100%
  pest or weed control at 10 µg/mL: 100%
  pest or weed control at 100 µg/mL: 100%
  pest or weed control at 600 µg/mL: 100%
Carmine spider mite; Tetranychus cinnabarinus, 72 h
  pest or weed control at 10 µg/mL: 72%
  pest or weed control at 100 µg/mL: 100%
  pest or weed control at 600 µg/mL: 100%
Cucumber downy mildew; read-out: control effect against cucumber downy mildew (%)
  pest or weed control at 400 µg/mL: 0%
